From US9381200B2, “Nitrogen containing compounds” (WOCKHARDT LIMITED, priority 2011, dated 2016) come the findings set out here.

≈ marks a conversion by molar mass, not a printed value. Like-named read-outs stand apart in the source and are kept apart here. Some results are limits rather than exact numbers.

Common to all, as to assay type: cell-based
The subject of one assay is E. coli NCTC 13351. Kind of assay: Antibacterial activity (MIC), agar dilution per CLSI. Conditions: Escherichia coli, NCTC13351, Table 3, E. coli NCTC 13351 expressing ESBL, 16-20 hours, 35±2° C., read-out: MIC. The gist of the method:
(§1)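 Agar dilution MIC per CLSI: overnight cultures diluted and inoculated onto agar containing doubling dilutions of compound. Growth/no growth read after 16-20 h at 35±2° C in ambient air. Strains express ESBL.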
(In general: Agar dilution tests growth on a series of plates holding different concentrations.)

The subject of another assay is E. coli 7 MP. The description is as above. Conditions: Escherichia coli, Table 3, E. coli 7 MP expressing ESBL, read-out: MIC. In a few lines: as §1
In the next assay the test system is E. coli M 50. The description is as above. The following applies: Escherichia coli, read-out: MIC. In a few lines:
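MIC values (mcg/ml) are the lowest compound level on agar showing no growth. Each strain, taken from an overnight culture and diluted, is inoculated onto media carrying doubling dilutions of compound, then incubated for 16-20 hours at 35±2° C. without added CO2.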

The subject of the next assay is K penumoniae H 521. The assay is described as follows: Antibacterial activity (MIC) against MDR Gram negative strains. The following applies: Table 4; K penumoniae H 521, KPC ESBL, MDR; read-out: MIC. As for the experimental part:
(§2) The biological activity of representative compounds according to the invention against various bacterial strains was investigated. In a typical study, overnight grown bacterial cultures were diluted appropriately and inoculated on the agar media containing doubling dilutions of the test compounds. Observation for growth or no growth was performed after 16-20 hours of incubation at 35±2° C. in ambient air. The overall procedure was performed as per Clinical and Laboratory Standards Institute (CLSI) recommendations (Clinical and Laboratory Standards Institute (CLSI), Performance Standards for Antimicrobial Susceptibility Testing, 20th Informational Supplement, M 100-S20, Volume 30, No. 1, 2010).
(§3) The activities are expressed as MICs (mcg/ml).

The next assay relates to K penumoniae H 523. Described as above. The following applies: Table 4; K penumoniae H 523, KPC ESBL, MDR; read-out: MIC. The protocol:
as §2, §3

The next assay relates to E. Coli M 3. The assay is described as above. Conditions: Escherichia coli; Table 5; E. Coli M 3, Class B ESBL, MDR; read-out: MIC. The protocol: as §2, §3
The subject of a further assay is E. Coli H 484. The description is as above. The following applies: Escherichia coli; Table 4; E. Coli H 484, Class C ESBL, MDR; read-out: MIC. The protocol: as §2, §3
The test system of the next assay is K. penumoniae S 48. The assay is described as above. The following applies: Table 5; K. penumoniae S 48, Class B ESBL, MDR; read-out: MIC. As for the experimental part:
as §2, §3

A further assay relates to E. Coli B 89. The assay is described as above. Conditions: Escherichia coli; Table 4; E. Coli B 89, Class C ESBL, MDR; read-out: MIC. The protocol: as §2, §3
A further assay deals with E. Coli W 13352. The description is as above. The following applies: Escherichia coli; Table 4; E. Coli W 13352, Class A ESBL, MDR; read-out: MIC. The protocol:
as §2, §3

The next assay concerns E. Coli W 13351. Described as above. Conditions: Escherichia coli; Table 4; E. Coli W 13351, Class A ESBL, MDR; read-out: MIC. As for the experimental part:
as §2, §3

The next assay concerns P. aeruginosa Ps 32. The assay is described as above. The following applies: Pseudomonas aeruginosa, PS32; Table 5; P. aeruginosa Ps 32; read-out: MIC. As for the experimental part:
as §2, §3

The next assay has as its system P. aeruginosa Ps 21. The assay is described as above. The following applies: Pseudomonas aeruginosa, PS21; Table 5; P. aeruginosa Ps 21; read-out: MIC. As for the experimental part: as §2, §3
Another assay concerns K penumoniae H 525. The description is as above. The following applies: Table 4; K penumoniae H 525, KPC ESBL, MDR; read-out: MIC. The protocol: as §2, §3
The subject of the next assay is E. Coli W 13353. The assay is described as above. Conditions: Escherichia coli; Table 4; E. Coli W 13353, Class A ESBL, MDR; read-out: MIC. The protocol:
as §2, §3

Another assay concerns P. aeruginosa ATCC 27853. Described as above. Conditions: Pseudomonas aeruginosa, ATCC27853; Table 5; P. aeruginosa ATCC 27853; read-out: MIC. As for the experimental part:
as §2, §3

Another assay has as its system E. Coli M 44. Described as above. The following applies: Escherichia coli; Table 5; E. Coli M 44, Class B ESBL, MDR; read-out: MIC. The protocol: as §2, §3
The mark [1] stands for this setting: M50, Table 3, E. coli M 50 expressing ESBL, agar dilution.
The mark [2] stands for this setting: M50, Table 4, E. Coli M 50, Class C ESBL, MDR.

Broadly, the MIC is the lowest concentration found to suppress growth. `O=C(NNC(=O)[C@H]1CC[C@@H]2CN1C(=O)N2OS(=O)(=O)O)C1CCNCC1` (relative stereo) [Example 13, trans-sulfuric acid mono-[2-(N′-(piperidin-4-carbonyl)-hydrazinocarbonyl)-7-oxo-1,6-diaza-bicyclo[3.2.1]oct-6-yl]ester]: the MIC is 1 µg/mL (≈ 2.55 µM) in the assay with E. coli NCTC 13351; 2 µg/mL (≈ 5.11 µM) with E. coli 7 MP; 1 µg/mL (≈ 2.55 µM) in the assay on E. coli M 50 (setting [1]); 1 µg/mL (≈ 2.55 µM) in the assay with E. coli M 50 (setting [2]); 1 µg/mL (≈ 2.55 µM) in the assay on K penumoniae H 521; 0.5 µg/mL (≈ 1.28 µM) with K penumoniae H 523. In addition, the MIC with E. Coli M 3 was 1 µg/mL (≈ 2.55 µM); in the assay with E. Coli H 484 it was 4 µg/mL (≈ 10.2 µM); with K. penumoniae S 48, 1 µg/mL (≈ 2.55 µM); in the assay with E. Coli B 89, 1 µg/mL (≈ 2.55 µM); in the assay with E. Coli W 13352, 2 µg/mL (≈ 5.11 µM); in the assay on E. Coli W 13351, 1 µg/mL (≈ 2.55 µM). For the same molecule, the MIC in the assay on P. aeruginosa Ps 32 came out at 16 µg/mL (≈ 40.9 µM); in the assay on P. aeruginosa Ps 21, 32 µg/mL (≈ 81.8 µM); in the assay with K penumoniae H 525 it was 1 µg/mL (≈ 2.55 µM); in the assay with E. Coli W 13353 it was 1 µg/mL (≈ 2.55 µM); with P. aeruginosa ATCC 27853 it was 32 µg/mL (≈ 81.8 µM); in the assay on E. Coli M 44 it was 1 µg/mL (≈ 2.55 µM).
Consider `N[C@@H]1CN[C@H](C(=O)NNC(=O)[C@H]2CC[C@@H]3CN2C(=O)N3OS(=O)(=O)O)C1` (mixture of isomers) [Example 35, trans-sulfuric acid mono-[2-(N′-[(2S,4S)-4-amino-pyrrolidin-2-carbonyl]-hydrazinocarbonyl)-7-oxo-1,6-diaza-bicyclo[3.2.1]oct-6-yl]ester], for which the MIC with E. coli NCTC 13351 worked out at 1 µg/mL; with E. coli 7 MP, 4 µg/mL; in the assay with E. coli M 50 (setting [1]), 1 µg/mL; in the assay on E. coli M 50 (setting [2]), 1 µg/mL; with K penumoniae H 521, 2 µg/mL; with K penumoniae H 523, 1 µg/mL. Besides, the MIC with E. Coli M 3 was 1 µg/mL; with E. Coli H 484, 1 µg/mL; with K. penumoniae S 48, 2 µg/mL; in the assay on E. Coli B 89 it was 1 µg/mL; with E. Coli W 13352, 1 µg/mL; in the assay on E. Coli W 13351, 1 µg/mL. Besides, the MIC was 32 µg/mL with P. aeruginosa Ps 32; > 32 µg/mL with P. aeruginosa Ps 21; 1 µg/mL in the assay on K penumoniae H 525; 1 µg/mL in the assay with E. Coli W 13353; > 32 µg/mL in the assay with P. aeruginosa ATCC 27853; 2 µg/mL in the assay on E. Coli M 44.
As for `O=C(NNC(=O)[C@H]1CC[C@@H]2CN1C(=O)N2OS(=O)(=O)O)C1CCCNC1` (mixture of isomers) [Example 14, trans-sulfuric acid mono-[2-(N′—((RS)-piperidin-3-carbonyl)-hydrazinocarbonyl)-7-oxo-1,6-diaza-bicyclo[3.2.1]oct-6-yl]ester], the MIC with E. coli NCTC 13351 came to 0.5 µg/mL (≈ 1.28 µM); in the assay on E. coli 7 MP, 2 µg/mL (≈ 5.11 µM); with E. coli M 50 (setting [1]), 0.25 µg/mL (≈ 0.639 µM); in the assay on E. coli M 50 (setting [2]), 0.5 µg/mL (≈ 1.28 µM); in the assay on K penumoniae H 521, 0.5 µg/mL (≈ 1.28 µM); in the assay on K penumoniae H 523 it was 0.25 µg/mL (≈ 0.639 µM). In addition, the MIC in the assay on E. Coli M 3 turned out to be 0.5 µg/mL (≈ 1.28 µM); with E. Coli H 484, 2 µg/mL (≈ 5.11 µM); in the assay on K. penumoniae S 48 it was 4 µg/mL (≈ 10.2 µM); in the assay with E. Coli B 89, 0.5 µg/mL (≈ 1.28 µM); in the assay with E. Coli W 13352, 0.5 µg/mL (≈ 1.28 µM); in the assay on E. Coli W 13351, 0.5 µg/mL (≈ 1.28 µM). Also, the minimum inhibitory concentration (MIC) stood at 8 µg/mL (≈ 20.4 µM) in the assay with P. aeruginosa Ps 32; 16 µg/mL (≈ 40.9 µM) in the assay on P. aeruginosa Ps 21; 0.25 µg/mL (≈ 0.639 µM) in the assay on K penumoniae H 525; 0.5 µg/mL (≈ 1.28 µM) with E. Coli W 13353; 8 µg/mL (≈ 20.4 µM) with P. aeruginosa ATCC 27853; 0.25 µg/mL (≈ 0.639 µM) with E. Coli M 44.
Turning to `NCC(=O)NNC(=O)[C@H]1CC[C@@H]2CN1C(=O)N2OS(=O)(=O)O` (relative stereo) [Example 7, trans-sulfuric acid mono-[2-(N′-(amino-acetyl)-hydrazinocarbonyl)-7-oxo-1,6-diaza-bicyclo[3.2.1]oct-6-yl]ester], the MIC in the assay with E. coli NCTC 13351 was determined as 2 µg/mL (≈ 5.93 µM); in the assay on E. coli 7 MP, 4 µg/mL (≈ 11.9 µM); in the assay on E. coli M 50 (setting [1]) it was 2 µg/mL (≈ 5.93 µM); in the assay with E. coli M 50 (setting [2]), 2 µg/mL (≈ 5.93 µM); in the assay with K penumoniae H 521 it was 2 µg/mL (≈ 5.93 µM); in the assay with K penumoniae H 523, 1 µg/mL (≈ 2.96 µM). Also, the MIC with E. Coli M 3 turned out to be 4 µg/mL (≈ 11.9 µM); in the assay on E. Coli H 484, 4 µg/mL (≈ 11.9 µM); in the assay on K. penumoniae S 48 it was 4 µg/mL (≈ 11.9 µM); in the assay on E. Coli B 89, 4 µg/mL (≈ 11.9 µM); in the assay on E. Coli W 13352, 1 µg/mL (≈ 2.96 µM); in the assay on E. Coli W 13351, 2 µg/mL (≈ 5.93 µM). Further, the MIC in the assay on P. aeruginosa Ps 32 was > 32 µg/mL; in the assay on P. aeruginosa Ps 21, > 32 µg/mL; in the assay with K penumoniae H 525, 2 µg/mL (≈ 5.93 µM); with E. Coli W 13353 it was 0.5 µg/mL (≈ 1.48 µM); with P. aeruginosa ATCC 27853 it was > 32 µg/mL; in the assay on E. Coli M 44, 2 µg/mL (≈ 5.93 µM).
